Measured values as given in patent US10844052B2, “LLS compounds for treatment of cancer” (THE REGENTS OF THE UNIVERSITY OF CALIFORNIA, priority 2016, dated 2020).

Tested on: PC3 prostate cancer cells
Assay: Cell viability of prostate cancer PC3 cells after 72 hours treatment
Format: cell-based
Conditions: Homo sapiens; for viability at 2.5 µM: PC-3, 2.5 μM; for viability at 5 µM: PC-3, 5 μM; for viability at 10 µM: PC-3, 10 μM; for viability at 20 µM: PC-3, 20 μM
Procedure: Effects of compounds LLS42-LLS80 on the viability of PC3 prostate cancer cells after 72 hours of treatment are shown in Table 2 below: […]

## NC(=O)CC(NCC1CCCCC1)c1ccc2c(c1)nc(-c1ccc(N(CCO)CCO)cc1)n2Cc1ccc(OC(F)(F)F)cc1 (stereo not drawn) [LLS42, 3-(2-(4-(bis(2-hydroxyethyl)amino)phenyl)-1-(4-(trifluoromethoxy)benzyl)-1H-benzo[d]imidazol-5-yl)-3-((cyclohexylmethyl)amino)propanamide]
  viability at 2.5 µM: 95%
  viability at 5 µM: 92%
  viability at 10 µM: 49%
  viability at 20 µM: 0%

## COc1cc(CNC(CC(N)=O)c2ccc3c(c2)nc(-c2ccc(N(CCO)CCOC(C)=O)cc2)n3C(C)C)cc(Br)c1OC (stereo not drawn) [LLS43, 2-((4-(5-(3-amino-1-((3-bromo-4,5-dimethoxybenzyl)amino)-3-oxopropyl)-1-isopropyl-1H-benzo[d]imidazol-2-yl)phenyl)(2-hydroxyethyl)amino)ethyl Acetate]
  viability at 2.5 µM: 105%
  viability at 5 µM: 102%
  viability at 10 µM: 101%
  viability at 20 µM: 105%

## COc1cc(CNC(CC(N)=O)c2ccc3c(c2)nc(-c2ccc(N(CCOC(C)=O)CCOC(C)=O)cc2)n3C(C)C)cc(Br)c1OC (stereo not drawn) [LLS43Ac, ((4-(5-(3-amino-1-((3-bromo-4,5-dimethoxybenzyl)amino)-3-oxopropyl)-1-isopropyl-1H-benzo[d]imidazol-2-yl)phenyl)azanediyl)bis(ethane-2,1-diyl) Diacetate]
  viability at 2.5 µM: 97%
  viability at 5 µM: 102%
  viability at 10 µM: 103%
  viability at 20 µM: 97%

## NCCn1c(-c2ccc(N(CCO)CCO)cc2)nc2cc(C(CC(N)=O)NCc3ccc(Br)s3)ccc21 (stereo not drawn) [LLS45, 3-(1-(2-aminoethyl)-2-(4-(bis(2-hydroxyethyl)amino)phenyl)-1H-benzo[d]imidazol-5-yl)-3-(((5-bromothiophen-2-yl)methyl)amino)propanamide]
  viability at 2.5 µM: 92%
  viability at 5 µM: 102%
  viability at 10 µM: 118%
  viability at 20 µM: 117%

## CC(=O)OCCN(CCOC(C)=O)c1ccc(-c2nc3cc(C(CC(N)=O)NCc4ccc(Br)s4)ccc3n2CCN)cc1 (stereo not drawn) [LLS45Ac, ((4-(5-(3-amino-1-(((5-bromothiophen-2-yl)methyl)amino)-3-oxopropyl)-1-(2-aminoethyl)-1H-benzo[d]imidazol-2-yl)phenyl)azanediyl)bis(ethane-2,1-diyl) Diacetate]
  viability at 2.5 µM: 98%
  viability at 5 µM: 98%
  viability at 10 µM: 98%
  viability at 20 µM: 91%

## NC(=O)CC(NCc1ccc(Cl)c(Cl)c1)c1ccc2c(c1)nc(-c1ccc(N(CCO)CCO)cc1)n2CCCN1CCCCC1 (stereo not drawn) [LLS46, 3-(2-(4-(bis(2-hydroxyethyl)amino)phenyl)-1-(3-(piperidin-1-yl)propyl)-1H-benzo[d]imidazol-5-yl)-3-((3,4-dichlorobenzyl)amino)propanamide]
  viability at 2.5 µM: 86%
  viability at 5 µM: 97%
  viability at 10 µM: 92%
  viability at 20 µM: 94%

## NC(=O)CC(NCc1ccc(-c2cncnc2)cc1)c1ccc2c(c1)nc(-c1ccc(N(CCO)CCO)cc1)n2Cc1ccc(OC(F)(F)F)cc1 (stereo not drawn) [LLS51, 3-(2-(4-(bis(2-hydroxyethyl)amino)phenyl)-1-(4-(trifluoromethoxy)benzyl)-1H-benzo[d]imidazol-5-yl)-3-((4-(pyrimidin-5-yl)benzyl)amino)propanamide]
  viability at 2.5 µM: 83%
  viability at 5 µM: 79%
  viability at 10 µM: 99%
  viability at 20 µM: 105%

## NC(=O)CC(NCc1cccn1S(=O)(=O)c1ccccc1)c1ccc2c(c1)nc(-c1ccc(N(CCO)CCO)cc1)n2CCCN1CCCCC1 (stereo not drawn) [LLS52, 3-(2-(4-(bis(2-hydroxyethyl)amino)phenyl)-1-(3-(piperidin-1-yl)propyl)-1H-benzo[d]imidazol-5-yl)-3-(((1-(phenylsulfonyl)-1H-pyrrol-2-yl)methyl)amino)propanamide]
  viability at 2.5 µM: 97%
  viability at 5 µM: 96%
  viability at 10 µM: 87%
  viability at 20 µM: 84%

## CC(=O)OCCN(CCOC(C)=O)c1ccc(-c2nc3cc(C(CC(N)=O)NCc4cccn4S(=O)(=O)c4ccccc4)ccc3n2CCCN2CCCCC2)cc1 (stereo not drawn) [LLS52Ac, ((4-(5-(3-amino-3-oxo-1-(((1-(phenylsulfonyl)-1H-pyrrol-2-yl)methyl)amino)propyl)-1-(3-(piperidin-1-yl)propyl)-1H-benzo[d]imidazol-2-yl)phenyl)azanediyl)bis(ethane-2,1-diyl) Diacetate]
  viability at 2.5 µM: 91%
  viability at 5 µM: 96%
  viability at 10 µM: 94%
  viability at 20 µM: 91%

## COc1ccc(CCn2c(-c3ccc(N(CCO)CCO)cc3)nc3cc(C(CC(N)=O)NCc4ccc5[nH]ncc5c4)ccc32)cc1 (stereo not drawn) [LLS53, 3-(((1H-indazol-5-yl)methyl)amino)-3-(2-(4-(bis(2-hydroxyethyl)amino)phenyl)-1-(4-methoxyphenethyl)-1H-benzo[d]imidazol-5-yl)propanamide]
  viability at 2.5 µM: 93%
  viability at 5 µM: 91%
  viability at 10 µM: 98%
  viability at 20 µM: 105%

## COc1ccc(CCn2c(-c3ccc(N(CCOC(C)=O)CCOC(C)=O)cc3)nc3cc(C(CC(N)=O)NCc4ccc5[nH]ncc5c4)ccc32)cc1 (stereo not drawn) [LLS53Ac, ((4-(5-(1-(((1H-indazol-5-yl)methyl)amino)-3-amino-3-oxopropyl)-1-(4-methoxyphenethyl)-1H-benzo[d]imidazol-2-yl)phenyl)azanediyl)bis(ethane-2,1-diyl) Diacetate]
  viability at 2.5 µM: 97%
  viability at 5 µM: 94%
  viability at 10 µM: 99%
  viability at 20 µM: 101%

## NCCCn1c(-c2ccc(N(CCO)CCO)cc2)nc2cc(C(CC(N)=O)NCc3ccc(C4CC=NN4)s3)ccc21 (stereo not drawn) [LLS54, 3-(1-(3-aminopropyl)-2-(4-(bis(2-hydroxyethyl)amino)phenyl)-1H-benzo[d]imidazol-5-yl)-3-(((5-(4,5-dihydro-1H-pyrazol-5-yl)thiophen-2-yl)methyl)amino)propanamide]
  viability at 2.5 µM: 90%
  viability at 5 µM: 86%
  viability at 10 µM: 105%
  viability at 20 µM: 87%

## NC(=O)CC(NCc1ccc2[nH]ncc2c1)c1ccc2c(c1)nc(-c1ccc(N(CCO)CCO)cc1)n2Cc1ccc(OC(F)(F)F)cc1 (stereo not drawn) [LLS55, 3-(((1H-indazol-5-yl)methyl)amino)-3-(2-(4-(bis(2-hydroxyethyl)amino)phenyl)-1-(4-(trifluoromethoxy)benzyl)-1H-benzo[d]imidazol-5-yl)propanamide]
  viability at 2.5 µM: 91%
  viability at 5 µM: 100%
  viability at 10 µM: 102%
  viability at 20 µM: 92%

## COc1ccc(CCn2c(-c3ccc(N(CCOC(C)=O)CCOC(C)=O)cc3)nc3cc(C(CC(N)=O)NCC4CCCCC4)ccc32)cc1 (stereo not drawn) [LLS56Ac, ((4-(5-(3-amino-1-((cyclohexylmethyl)amino)-3-oxopropyl)-1-(4-methoxyphenethyl)-1H-benzo[d]imidazol-2-yl)phenyl)azanediyl)bis(ethane-2,1-diyl) Diacetate]
  viability at 2.5 µM: 85%
  viability at 5 µM: 93%
  viability at 10 µM: 92%
  viability at 20 µM: 55%

## COc1ccc(CCn2c(-c3ccc(N(CCO)CCO)cc3)nc3cc(C(CC(N)=O)NCC4CCCCC4)ccc32)cc1 (stereo not drawn) [LLS56]
  viability at 2.5 µM: 104%
  viability at 5 µM: 105%
  viability at 10 µM: 98%
  viability at 20 µM: 93%

## NC(=O)CC(NCc1ccc(-c2ccncc2)cc1)c1ccc2c(c1)nc(-c1ccc(N(CCO)CCO)cc1)n2CCCn1ccnc1 (stereo not drawn) [LLS58, 3-(1-(3-(1H-imidazol-1-yl)propyl)-2-(4-(bis(2-hydroxyethyl)amino)phenyl)-1H-benzo[d]imidazol-5-yl)-3-((4-(pyridin-4-yl)benzyl)amino)propanamide]
  viability at 2.5 µM: 92%
  viability at 5 µM: 84%
  viability at 10 µM: 81%
  viability at 20 µM: 74%

## CC(=O)OCCN(CCOC(C)=O)c1ccc(-c2nc3cc(C(CC(N)=O)NCc4ccc(-c5ccncc5)cc4)ccc3n2CCCn2ccnc2)cc1 (stereo not drawn) [LLS58Ac, ((4-(1-(3-(1H-imidazol-1-yl)propyl)-5-(3-amino-3-oxo-1-((4-(pyridin-4-yl)benzyl)amino)propyl)-1H-benzo[d]imidazol-2-yl)phenyl)azanediyl)bis(ethane-2,1-diyl) Diacetate]
  viability at 2.5 µM: 100%
  viability at 5 µM: 98%
  viability at 10 µM: 91%
  viability at 20 µM: 83%

## COc1cccc(Cn2c(-c3ccc(N(CCO)CCO)cc3)nc3cc(C(CC(N)=O)NCc4ccc5[nH]ncc5c4)ccc32)c1 (stereo not drawn) [LLS59, 3-(((1H-indazol-5-yl)methyl)amino)-3-(2-(4-(bis(2-hydroxyethyl)amino)phenyl)-1-(3-methoxybenzyl)-1H-benzo[d]imidazol-5-yl)propanamide]
  viability at 2.5 µM: 83%
  viability at 5 µM: 97%
  viability at 10 µM: 90%
  viability at 20 µM: 91%

## NC(=O)CC(NCc1cccc2ccccc12)c1ccc2c(c1)nc(-c1ccc(N(CCO)CCO)cc1)n2Cc1ccc(OC(F)(F)F)cc1 (stereo not drawn) [LLS63, 3-(2-(4-(bis(2-hydroxyethyl)amino)phenyl)-1-(4-(trifluoromethoxy)benzyl)-1H-benzo[d]imidazol-5-yl)-3-((naphthalen-1-ylmethyl)amino)propanamide]
  viability at 2.5 µM: 80%
  viability at 5 µM: 86%
  viability at 10 µM: 29%
  viability at 20 µM: 0%

## CN1CCN(c2ccc(-c3nc4cc(C(CC(N)=O)NCc5ccc(Cl)c(Cl)c5)ccc4n3Cc3ccc(C(F)(F)F)cc3)cc2)CC1 (stereo not drawn) [LLS64, 3-((3,4-dichlorobenzyl)amino)-3-(2-(4-(4-methylpiperazin-1-yl)phenyl)-1-(4-(trifluoromethyl)benzyl)-1H-benzo[d]imidazol-5-yl)propanamide]
  viability at 2.5 µM: 94%
  viability at 5 µM: 83%
  viability at 10 µM: 60%
  viability at 20 µM: 3%

## NC(=O)CC(NCc1ccc(Cl)c(Cl)c1)c1ccc2c(c1)nc(-c1ccc(N3CCOCC3)cc1)n2CCCN1CCCCC1 (stereo not drawn) [LLS65, 3-((3,4-dichlorobenzyl)amino)-3-(2-(4-morpholinophenyl)-1-(3-(piperidin-1-yl)propyl)-1H-benzo[d]imidazol-5-yl)propanamide]
  viability at 2.5 µM: 95%
  viability at 5 µM: 94%
  viability at 10 µM: 74%
  viability at 20 µM: 34%
